Assay results published in patent US20240228504A1, “SUBSTITUTED TRICYCLIC AMIDES, ANALOGUES THEREOF, AND METHODS USING SAME” (Arbutus Biopharma Corporation, priority 2020, published 2024).

Tested on: HBV rcDNA in HepDE19 cells
Assay: HepDE19 assay with bDNA quantitation of HBV rcDNA
Assay type: cell-based, hepatitis B virus
Conditions: HepDE19 assay, inhibition of rcDNA formation, bDNA quantitation; read-out: DE-19bDNA EC50

| Structure (SMILES) | EC50 [nM] |
| --- | --- |
| CN(C(=O)c1cc2c(C(F)F)cc(F)cc2[nH]1)C1CNCc2[nH]c(=O)c3cc(F)ccc3c21 (single isomer, unassigned) [Compound 260, 4-(Difluoromethyl)-6-fluoro-N-(8-fluoro-6-oxo-1,2,3,4,5,6-hexahydrobenzo[c][1,7]naphthyridin-1-yl)-N-methyl-1H-indole-2-carboxamide] | 60 |
| CN(C(=O)c1cc2c(C(F)F)c(F)ccc2[nH]1)C1CNCc2[nH]c(=O)c3cc(F)c(F)cc3c21 (single isomer, unassigned) [Compound 264, N-(8,9-Difluoro-6-oxo-1,2,3,4,5,6-hexahydrobenzo[c][1,7]naphthyridin-1-yl)-4-(difluoromethyl)-5-fluoro-N-methyl-1H-indole-2-carboxamide] | 8230 |
| CN(C(=O)c1cc2c(C(F)F)c(F)ccc2[nH]1)C1CNCc2[nH]c(=O)c3cc(F)c(F)cc3c21 (single isomer, unassigned) [Compound 265, N-(8,9-Difluoro-6-oxo-1,2,3,4,5,6-hexahydrobenzo[c][1,7]naphthyridin-1-yl)-4-(difluoromethyl)-5-fluoro-N-methyl-1H-indole-2-carboxamide] | 20 |
| CN(C(=O)c1cc2c(C(F)F)c(F)ccc2[nH]1)C1CNCc2[nH]c(=O)c3cc(F)ccc3c21 (single isomer, unassigned) [Compound 271, 4-(Difluoromethyl)-5-fluoro-N-(8-fluoro-6-oxo-1,2,3,4,5,6-hexahydrobenzo[c][1,7]naphthyridin-1-yl)-N-methyl-1H-indole-2-carboxamide] | 6700 |
| CN(C(=O)c1cc2c(C(F)F)c(F)ccc2[nH]1)C1CNCc2[nH]c(=O)c3cc(F)ccc3c21 (single isomer, unassigned) [Compound 272, 4-(Difluoromethyl)-5-fluoro-N-(8-fluoro-6-oxo-1,2,3,4,5,6-hexahydrobenzo[c][1,7]naphthyridin-1-yl)-N-methyl-1H-indole-2-carboxamide] | 70 |
| CN(C(=O)c1ccc(-c2cccc(F)c2)cc1)C1CNCc2[nH]c(=O)c3cc(F)c(F)cc3c21 (single isomer, unassigned) [Compound 301, N-(8,9-Difluoro-6-oxo-1,2,3,4,5,6-hexahydrobenzo[c][1,7]naphthyridin-1-yl)-3′-fluoro-N-methyl-[1,1′-biphenyl]-4-carboxamide] | 24500 |
| CN(C(=O)c1ccc(-c2cccc(F)c2)cc1)C1CNCc2[nH]c(=O)c3cc(F)c(F)cc3c21 (single isomer, unassigned) [Compound 302, N-(8,9-Difluoro-6-oxo-1,2,3,4,5,6-hexahydrobenzo[c][1,7]naphthyridin-1-yl)-3′-fluoro-N-methyl-[1,1′-biphenyl]-4-carboxamide] | 1060 |
| CNc1nc2c(c3cc(F)c(F)cc13)C(N(C)C(=O)c1cc3cc(F)c(F)cc3[nH]1)COC2 (single isomer, unassigned) [Compound 333, N-(8,9-Difluoro-6-(methylamino)-1,4-dihydro-2H-pyrano[3,4-c]isoquinolin-1-yl)-5,6-difluoro-N-methyl-1H-indole-2-carboxamide] | 530 |
| CNc1nc2c(c3cc(F)c(F)cc13)C(N(C)C(=O)c1cc3cc(F)c(F)cc3[nH]1)COC2 (single isomer, unassigned) [Compound 334, N-(8,9-Difluoro-6-(methylamino)-1,4-dihydro-2H-pyrano[3,4-c]isoquinolin-1-yl)-5,6-difluoro-N-methyl-1H-indole-2-carboxamide] | 10 |
| CN(C(=O)c1cc2cc(F)c(F)cc2[nH]1)C1COCc2nc(NCCO)c3cc(F)c(F)cc3c21 (single isomer, unassigned) [Compound 335, N-(8,9-Difluoro-6-((2-hydroxyethyl)amino)-1,4-dihydro-2H-pyrano[3,4-c]isoquinolin-1-yl)-5,6-difluoro-N-methyl-1H-indole-2-carboxamide] | 440 |
| CN(C(=O)c1cc2cc(F)c(F)cc2[nH]1)C1COCc2nc(NCCO)c3cc(F)c(F)cc3c21 (single isomer, unassigned) [Compound 336, N-(8,9-Difluoro-6-((2-hydroxyethyl)amino)-1,4-dihydro-2H-pyrano[3,4-c]isoquinolin-1-yl)-5,6-difluoro-N-methyl-1H-indole-2-carboxamide] | 10 |
| CN(C(=O)c1cc2cc(F)c(F)cc2[nH]1)C1COCc2nc(NCCN)c3cc(F)c(F)cc3c21 (single isomer, unassigned) [Compound 351, N-(6-((2-Aminoethyl)amino)-8,9-difluoro-1,4-dihydro-2H-pyrano[3,4-c]isoquinolin-1-yl)-5,6-difluoro-N-methyl-1H-indole-2-carboxamide] | 30 |
| CN(C(=O)c1cc2cc(F)c(F)cc2[nH]1)C1COCc2nc(NCCN)c3cc(F)c(F)cc3c21 (single isomer, unassigned) [Compound 352, N-(6-((2-Aminoethyl)amino)-8,9-difluoro-1,4-dihydro-2H-pyrano[3,4-c]isoquinolin-1-yl)-5,6-difluoro-N-methyl-1H-indole-2-carboxamide] | 590 |
| CC(O)c1cc(F)cc2[nH]c(C(=O)N(C)[C@@H]3COCc4[nH]c(=O)c5cc(F)c(F)cc5c43)cc12 (single isomer, unassigned) [Compound 353] | 60 |
| CC(O)c1cc(F)cc2[nH]c(C(=O)N(C)[C@@H]3COCc4[nH]c(=O)c5cc(F)c(F)cc5c43)cc12 (single isomer, unassigned) [Compound 354] | 20 |
| CN(C(=O)c1cc2sccc2[nH]1)C1COCc2[nH]c(=O)c3cc(F)ccc3c21 (single isomer, unassigned) [Compound 380, N-(8-Fluoro-6-oxo-1,4,5,6-tetrahydro-2H-pyrano[3,4-c]isoquinolin-1-yl)-N-methyl-4H-thieno[3,2-b]pyrrole-5-carboxamide] | 880 |
| CN(C(=O)c1cc2sccc2[nH]1)C1COCc2[nH]c(=O)c3cc(F)ccc3c21 (single isomer, unassigned) [Compound 381, N-(8-Fluoro-6-oxo-1,4,5,6-tetrahydro-2H-pyrano[3,4-c]isoquinolin-1-yl)-N-methyl-4H-thieno[3,2-b]pyrrole-5-carboxamide] | 40 |
| CN(C(=O)c1cc2c(C#N)cc(F)cc2[nH]1)C1COCc2[nH]c(=O)c3cc(F)ccc3c21 (single isomer, unassigned) [Compound 382, 4-Cyano-6-fluoro-N-(8-fluoro-6-oxo-1,4,5,6-tetrahydro-2H-pyrano[3,4-c]isoquinolin-1-yl)-N-methyl-1H-indole-2-carboxamide] | 980 |
| CN(C(=O)c1cc2c(C#N)cc(F)cc2[nH]1)C1COCc2[nH]c(=O)c3cc(F)ccc3c21 (single isomer, unassigned) [Compound 383, 4-Cyano-6-fluoro-N-(8-fluoro-6-oxo-1,4,5,6-tetrahydro-2H-pyrano[3,4-c]isoquinolin-1-yl)-N-methyl-1H-indole-2-carboxamide] | 40 |
| CN(C(=O)c1cc2ccc(C(F)F)cn2c1)C1CNCc2[nH]c(=O)c3cc(F)c(F)cc3c21 (single isomer, unassigned) [Compound 387, N-(8,9-Difluoro-6-oxo-1,2,3,4,5,6-hexahydrobenzo[c][1,7]naphthyridin-1-yl)-6-(difluoromethyl)-N-methylindolizine-2-carboxamide] | 11000 |
| CN(C(=O)c1cc2ccc(C(F)F)cn2c1)C1CNCc2[nH]c(=O)c3cc(F)c(F)cc3c21 (single isomer, unassigned) [Compound 388, N-(8,9-Difluoro-6-oxo-1,2,3,4,5,6-hexahydrobenzo[c][1,7]naphthyridin-1-yl)-6-(difluoromethyl)-N-methylindolizine-2-carboxamide] | 110 |
| CN(C(=O)c1ccc2cccn2c1)C1COCc2[nH]c(=O)c3cc(F)ccc3c21 (single isomer, unassigned) [Compound 389, N-(8-Fluoro-6-oxo-1,4,5,6-tetrahydro-2H-pyrano[3,4-c]isoquinolin-1-yl)-N-methylindolizine-6-carboxamide] | 17000 |

Same assay, conditions: Hepatitis B virus, HepDE19, HepDE19 assay, inhibition of rcDNA formation, bDNA quantitation; read-out: DE-19bDNA EC50

| Structure (SMILES) | EC50 [nM] |
| --- | --- |
| CN(C(=O)c1cccc(-c2cccc(F)c2)c1)C1CNCc2[nH]c(=O)c3cc(F)c(F)cc3c21 (single isomer, unassigned) [Compound 304, N-(8,9-Difluoro-6-oxo-1,2,3,4,5,6-hexahydrobenzo[c][1,7]naphthyridin-1-yl)-3′-fluoro-N-methyl-[1,1′-biphenyl]-3-carboxamide] | 20000 |
| CNS(=O)(=O)c1cccc(C(=O)N(C)C2CNCc3[nH]c(=O)c4cc(F)c(F)cc4c32)c1 (single isomer, unassigned) [Compound 319, N-(8,9-Difluoro-6-oxo-1,2,3,4,5,6-hexahydrobenzo[c][1,7]naphthyridin-1-yl)-N-methyl-3-(N-methylsulfamoyl)benzamide] | 6800 |
| CN(C(=O)c1cccc(Oc2cccc(F)c2)c1)C1CNCc2[nH]c(=O)c3cc(F)c(F)cc3c21 (single isomer, unassigned) [Compound 339, N-(8,9-Difluoro-6-oxo-1,2,3,4,5,6-hexahydrobenzo[c][1,7]naphthyridin-1-yl)-3-(3-fluorophenoxy)-N-methylbenzamide] | 25000 |
| CN(C(=O)c1cnc(C(F)(F)F)c(Cl)c1)C1COCc2[nH]c(=O)c3cc(F)ccc3c21 (single isomer, unassigned) [Compound 378, 5-Chloro-N-(8-fluoro-6-oxo-1,4,5,6-tetrahydro-2H-pyrano[3,4-c]isoquinolin-1-yl)-N-methyl-6-(trifluoromethyl)nicotinamide] | 18300 |
| CN(C(=O)c1cnc(C(F)(F)F)c(Cl)c1)[C@@H]1COCc2[nH]c(=O)c3cc(F)ccc3c21 (single isomer, unassigned) [Compound 379, 5-Chloro-N-(8-fluoro-6-oxo-1,4,5,6-tetrahydro-2H-pyrano[3,4-c]isoquinolin-1-yl)-N-methyl-6-(trifluoromethyl)nicotinamide] | 170 |
| CN(C(=O)c1cc2cc(C(F)F)ccn2c1)C1CNCc2[nH]c(=O)c3cc(F)c(F)cc3c21 (single isomer, unassigned) [Compound 386, N-(8,9-Difluoro-6-oxo-1,2,3,4,5,6-hexahydrobenzo[c][1,7]naphthyridin-1-yl)-7-(difluoromethyl)-N-methylindolizine-2-carboxamide] | 1900 |
